Experimental data reported in patent US20160368873A1, “Optically Active Form of Mepenzolate, and Ameliorating Agent for Chronic Obstructive Pulmonary Disease Which Contains Same as Active Ingredient” (LTT BIO-PHARMA CO., LTD., priority 2014, published 2016).

Legend:
ICR mice [1] = test: Effect on PPE-induced inflammation (3), cytokine and chemokines in BALF by ELISA (Test Example 4.3); type: in vivo; settings: 38 μg/kg via the airway, PPE 20 U/kg, FIGS. 11 to 14
Protocol: The levels of cytokine and chemokine in broncho alveolar lavage fluid (BALF) were measured as indications of an effect on PPE-induced inflammation.
Specifically, TNF-α ([…]), which is a pro-inflammatory cytokine, was measured as a cytokine that is an inflammatory factor and a macrophage inflammatory protein (MIP-2), a monocyte chemotactic protein (MCP-1), and a keratinocyte-derived chemokine (KC) were measured as an inflammatory chemokine.
The measurement of such a cytokine and chemokines in the BALF was performed by ELISA.

ICR mice [2] = test: Effect on porcine pancreatic elastase (PPE)-induced inflammation (2) (Test Example 4.2); type: in vivo; settings: 7.5 μg/kg and 38 μg/kg via the airway once, PPE 20 U/kg 1 h later, BALF 6 h after PPE; for Total cell count in BALF: FIG. 9; for Neutrophil count in BALF: FIG. 10
Protocol: Then, broncho alveolar lavage fluid (BALF) was collected from the lung 6 hours after administration of porcine pancreatic elastase. The BALF was collected by washing the lung twice with saline containing heparin (50 U/mL) with the aid of a tracheostomy tube.
A total cell count of the collected BALF was measured by hemocytometer. The cells were centrifuged by using Cytospin 4 (registered trademark, manufactured by Thermo Electron Corporation) and then fixed with Diff-Quik reagent, and the neutrophil count was determined on the basis of the ratio of the neutrophil count to the total cell count.

ICR mice [3] = test: Effect on porcine pancreatic elastase (PPE)-induced inflammation (1) (Test Example 4.1); type: in vivo; settings: 38 μg/kg via the airway once, PPE 100 μg per mouse 1 h later, BALF 24 h after PPE, FIG. 8
Protocol: Then, broncho alveolar lavage fluid (BALF) was collected from the lung 24 hours after administration of porcine pancreatic elastase and a total cell count and a neutrophil count were measured.

[4] = biological target: T1, human M3 muscarinic receptor (Homo sapiens, UniProt P20309); test: Receptor binding ability (in vitro) (1), [3H]NMS competitive inhibition (Test Example 2.1); settings: CHO-K1 membrane fraction, 2.0 nM [3H]NMS
T1 construct: expressed in transfected cells; host or cells: CHO-K1 cells (membrane fraction)
Protocol: Nonspecific binding was measured in the presence of 1 μM atropine.
The resulting filter, which was dried and a solid scintillator, MeltiLex A (manufactured by PerkinElmer, Inc.) was melted thereon, was measured and quantified by using a β-counter (MicroBeta microplate scintillation counter (Trilux: manufactured by PerkinElmer, Inc.).

ICR mice [5] = test: Effect on methacholine-induced airway constriction (1) (Test Example 3.1); type: in vivo; settings: 3.75 μg/kg via the airway, 1 h before nebulized methacholine, FIG. 5
Protocol: (§1) Increase in airway resistance induced by methacoline was measured.
4 to 6 week old ICR mice received 1 mg/mL methacoline by nebulization over 20 seconds and this was repeated five times. After each administration of methacoline was completed, the airway resistance was measured by a snap shot technique. All the data were analyzed by using FlexiVent software.
(§2) One hour after administration, the mice received five exposures to nebulized methacoline by the above-mentioned method and the airway resistance at the time of each administration was measured.

ICR mice [6] = test: Effect on methacholine-induced airway constriction (2) (Test Example 3.2); type: in vivo; settings: 3.8 μg/kg via the airway, 1 h before nebulized methacholine, FIG. 7
Protocol: as §1
4 to 6 week old ICR mice were anesthetized with chloral hydrate (500 mg/kg), a tracheostomy was performed, and a metal tube […] in diameter was inserted into the trachea.
The mice were mechanically ventilated at 150 respirations/minute with a displacement per one cycle of 8.7 mL/kg and a positive end-expiratory pressure of 2 to 3 cmH2O.
The mice were exposed to nebulized methacholine (5 mg/kg) for 20 seconds four times at intervals of 40 seconds to induce airway resistance by methacholine, and the airway resistance was measured by a snap shot technique.
as §2
The data were analyzed by using FlexiVent software.

[7] = Concentration in lung tissue after airway administration (Test Example 1); type: in vivo; settings: ICR mice, airway administration 20 mg/kg, chiral HPLC
Protocol: The test samples were divided into 300 μL aliquots and subjected to ultrafiltration using an Amicon ultra-0.5 centrifugal filter.
The HPLC conditions were as follows.
Detector: Waters 2695 Alliance separation module and Waters 2996 photodiode array detector (manufactured by Waters Corporation)
Eluent: Solvent A (Water containing 0.1 M hexafluorophosphate)/Solvent B (acetonitrile)
Mobile Phase: 70% Solvent A/30% Solvent B
Measuring wavelength: 220 nm

ICR mice [8] = test: Fecal pellet output (level of constipation occurrence) after application of stress (Test Example 5); type: in vivo; settings: 4.7 mg/kg intratracheally, 1 h later one-hour restraint stress, FIG. 15
Protocol: 4 to 6 week old ICR mice were put under stress by placing the mice in a 50 mL tube for one hour, the tube ensuring free breathing but restraining free movement, and the fecal pellet output (the level of constipation occurrence) at that time was measured.
The level of constipation occurrence was monitored by measuring the fecal pellet output during the above-mentioned period.

[9] = biological target: T2, human M3 muscarinic receptor (hM3R) (Homo sapiens, UniProt P20309); test: Receptor binding ability (in vitro) (2), [3H]NMS competitive inhibition, hM3R (Test Example 2.2); settings: Table 2 and FIG. 3, compared to (R)-mepenzolate bromide and the racemate
T2 construct: expressed in transfected cells; host or cells: CHO-K1 cells (membrane fraction)
T2 sequence (P20309 whole entry): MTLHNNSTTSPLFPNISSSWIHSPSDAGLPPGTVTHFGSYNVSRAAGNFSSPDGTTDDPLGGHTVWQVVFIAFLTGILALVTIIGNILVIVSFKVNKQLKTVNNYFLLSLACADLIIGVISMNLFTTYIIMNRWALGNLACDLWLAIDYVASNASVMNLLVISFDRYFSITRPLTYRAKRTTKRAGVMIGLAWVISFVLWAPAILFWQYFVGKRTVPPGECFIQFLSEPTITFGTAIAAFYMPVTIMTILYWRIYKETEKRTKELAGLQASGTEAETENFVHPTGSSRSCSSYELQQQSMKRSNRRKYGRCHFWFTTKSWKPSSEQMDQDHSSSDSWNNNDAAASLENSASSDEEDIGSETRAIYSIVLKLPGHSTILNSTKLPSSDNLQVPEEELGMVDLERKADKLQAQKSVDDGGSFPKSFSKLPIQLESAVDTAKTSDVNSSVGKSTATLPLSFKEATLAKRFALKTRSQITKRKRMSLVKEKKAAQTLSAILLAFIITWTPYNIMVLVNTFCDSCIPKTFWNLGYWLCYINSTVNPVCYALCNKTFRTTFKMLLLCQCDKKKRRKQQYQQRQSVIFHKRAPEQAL
Protocol: Membrane fractions of CHO—K1 cells overexpressing a human M3 muscarinic receptor (hM3R) or CHO—K1 cells overexpressing a human M2 muscarinic receptor (hM2R) were used to measure receptor binding ability by competitive inhibition assay with 1-[N-methyl-^3H]scopolamine methyl bromide ([^3H]NMS, specific activity: 85.5 Cimmol). The protein concentration of the cell membrane was 10.0 μg/well and the [^3H]NMS concentration was 2.0 nM.
A binding buffer (phosphate buffer/saline) was added to the reagents to make a total volume of 200 μL. […]
The resulting filter was dried for 30 minutes, and then, fixed to a solid scintillator, MeltiLex A (melt-on scintillation sheet; manufactured by PerkinElmer, Inc.). The radioactivity remaining on the filter was measured in a MicroBeta Trilux microplate scintillation counter (manufactured by PerkinElmer, Inc.).
An experimental IC50 was calculated by using an experimentally obtained constant (κd) of [^3H]NMS for hM3R or hM2R and the concentration thereof, and then, the affinity at equilibrium was determined as a competitive equilibrium dissociation constant (κi) value. In this regard, the κi value was calculated from three individual curves and modified by using Prism (produced by GraphPad Software, Inc.).

T1 sequence (P20309 whole entry): as above

| SMILES | Inflammatory factors in BALF (TNF-α, MIP-2, MCP-1, KC) (ICR mice [1]) | Total cell count in BALF (ICR mice [2]) | Neutrophil count in BALF (ICR mice [2]) | Neutrophil count in BALF (ICR mice [3]) | Total cell count in BALF (ICR mice [3]) | Binding to the M3 receptor (FIG. 1), in words [4] | Effect of suppressing airway resistance (methacholine-induced) (ICR mice [5]) | Effect of suppressing airway resistance (methacholine-induced), low dose (ICR mice [6]) | Concentration in lung tissue, (R)-Mep, 5 min. ([7]; 5 min after administration, (R)-Mep detected) [μg/lung] | Concentration in lung tissue, (R)-Mep, 15 min. ([7]; 15 min after administration, (R)-Mep detected) [μg/lung] | Concentration in lung tissue, (R)-Mep, 30 min. ([7]; 30 min after administration, (R)-Mep detected) [μg/lung] | Level of constipation occurrence (fecal pellet output) (ICR mice [8]) | Concentration in lung tissue, (S)-Mep, 5 min. ([7]; 5 min after administration, (S)-Mep detected) [μg/lung] | Concentration in lung tissue, (S)-Mep, 15 min. ([7]; 15 min after administration, (S)-Mep detected) [μg/lung] | Concentration in lung tissue, (S)-Mep, 30 min. ([7]; 30 min after administration, (S)-Mep detected) [μg/lung] | Affinity to hM3R (M3 receptor), in words [9] |
| --- | --- | --- | --- | --- | --- | --- | --- | --- | --- | --- | --- | --- | --- | --- | --- | --- |
| C[N+]1(C)CCC[C@@H](OC(=O)C(O)(c2ccccc2)c2ccccc2)C1.[Br-] (racemic) [racemate, mepenzolate bromide, reference compound] | decreased inflammatory factors effectively | effect of decreasing | effect of decreasing | similarly effective | similarly effective | bound strongly to the M3 receptor | – | – | – | – | – | – | – | – | – | – |
| C[N+]1(C)CCC[C@@H](OC(=O)C(O)(c2ccccc2)c2ccccc2)C1.[Br-] [R-form, (3R)-3-[(hydroxy) (diphenyl)acetoxy]-1,1-dimethylpiperidinium bromide] | decreased inflammatory factors effectively | effect of decreasing | effect of decreasing | relatively stronger effect of decreasing | relatively stronger effect of decreasing | bound strongly to the M3 receptor | significant effect of suppressing airway resistance | significant effect of suppressing airway resistance | 44.5 ± 11.5 | 6.3 ± 4.2 | 5.1 ± 1.3 | highest level of constipation occurrence | – | – | – | – |
| C[N+]1(C)CCC[C@H](OC(=O)C(O)(c2ccccc2)c2ccccc2)C1.[Br-] [S-form, (3S)-3-[(hydroxy) (diphenyl)acetoxy]-1,1-dimethylpiperidinium bromide] | decreased inflammatory factors effectively | effect of decreasing | effect of decreasing | similarly effective | similarly effective | weaker binding ability | little effect | little effect | – | – | – | low level of constipation occurrence | 36.4 ± 9.5 | 7.6 ± 0.5 | 6.2 ± 0.4 | lower affinity |
